Among the data in US10696655B2, “Therapeutic compounds and uses thereof” (GENENTECH, INC., priority 2017, dated 2020) are IC50 values, retold here.

In assay [1] the target is CBP (Homo sapiens (Human), UniProt Q92793). Kind of assay: CBP TR-FRET binding assay.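 Note: displacement of a biotinylated small-molecule ligand from purified recombinant CBP read by TR-FRET, DMSO-only wells as control, IC50 from nonlinear curve fit.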 Conditions: His/Flag tagged CBP 4 nM, biotin-ligand 60 nM; read-out: CBP HTRF IC50. For orientation: Time-resolved FRET reads energy transfer from a long-lived donor to a nearby acceptor.
CBP, sequence (Q92793 whole entry): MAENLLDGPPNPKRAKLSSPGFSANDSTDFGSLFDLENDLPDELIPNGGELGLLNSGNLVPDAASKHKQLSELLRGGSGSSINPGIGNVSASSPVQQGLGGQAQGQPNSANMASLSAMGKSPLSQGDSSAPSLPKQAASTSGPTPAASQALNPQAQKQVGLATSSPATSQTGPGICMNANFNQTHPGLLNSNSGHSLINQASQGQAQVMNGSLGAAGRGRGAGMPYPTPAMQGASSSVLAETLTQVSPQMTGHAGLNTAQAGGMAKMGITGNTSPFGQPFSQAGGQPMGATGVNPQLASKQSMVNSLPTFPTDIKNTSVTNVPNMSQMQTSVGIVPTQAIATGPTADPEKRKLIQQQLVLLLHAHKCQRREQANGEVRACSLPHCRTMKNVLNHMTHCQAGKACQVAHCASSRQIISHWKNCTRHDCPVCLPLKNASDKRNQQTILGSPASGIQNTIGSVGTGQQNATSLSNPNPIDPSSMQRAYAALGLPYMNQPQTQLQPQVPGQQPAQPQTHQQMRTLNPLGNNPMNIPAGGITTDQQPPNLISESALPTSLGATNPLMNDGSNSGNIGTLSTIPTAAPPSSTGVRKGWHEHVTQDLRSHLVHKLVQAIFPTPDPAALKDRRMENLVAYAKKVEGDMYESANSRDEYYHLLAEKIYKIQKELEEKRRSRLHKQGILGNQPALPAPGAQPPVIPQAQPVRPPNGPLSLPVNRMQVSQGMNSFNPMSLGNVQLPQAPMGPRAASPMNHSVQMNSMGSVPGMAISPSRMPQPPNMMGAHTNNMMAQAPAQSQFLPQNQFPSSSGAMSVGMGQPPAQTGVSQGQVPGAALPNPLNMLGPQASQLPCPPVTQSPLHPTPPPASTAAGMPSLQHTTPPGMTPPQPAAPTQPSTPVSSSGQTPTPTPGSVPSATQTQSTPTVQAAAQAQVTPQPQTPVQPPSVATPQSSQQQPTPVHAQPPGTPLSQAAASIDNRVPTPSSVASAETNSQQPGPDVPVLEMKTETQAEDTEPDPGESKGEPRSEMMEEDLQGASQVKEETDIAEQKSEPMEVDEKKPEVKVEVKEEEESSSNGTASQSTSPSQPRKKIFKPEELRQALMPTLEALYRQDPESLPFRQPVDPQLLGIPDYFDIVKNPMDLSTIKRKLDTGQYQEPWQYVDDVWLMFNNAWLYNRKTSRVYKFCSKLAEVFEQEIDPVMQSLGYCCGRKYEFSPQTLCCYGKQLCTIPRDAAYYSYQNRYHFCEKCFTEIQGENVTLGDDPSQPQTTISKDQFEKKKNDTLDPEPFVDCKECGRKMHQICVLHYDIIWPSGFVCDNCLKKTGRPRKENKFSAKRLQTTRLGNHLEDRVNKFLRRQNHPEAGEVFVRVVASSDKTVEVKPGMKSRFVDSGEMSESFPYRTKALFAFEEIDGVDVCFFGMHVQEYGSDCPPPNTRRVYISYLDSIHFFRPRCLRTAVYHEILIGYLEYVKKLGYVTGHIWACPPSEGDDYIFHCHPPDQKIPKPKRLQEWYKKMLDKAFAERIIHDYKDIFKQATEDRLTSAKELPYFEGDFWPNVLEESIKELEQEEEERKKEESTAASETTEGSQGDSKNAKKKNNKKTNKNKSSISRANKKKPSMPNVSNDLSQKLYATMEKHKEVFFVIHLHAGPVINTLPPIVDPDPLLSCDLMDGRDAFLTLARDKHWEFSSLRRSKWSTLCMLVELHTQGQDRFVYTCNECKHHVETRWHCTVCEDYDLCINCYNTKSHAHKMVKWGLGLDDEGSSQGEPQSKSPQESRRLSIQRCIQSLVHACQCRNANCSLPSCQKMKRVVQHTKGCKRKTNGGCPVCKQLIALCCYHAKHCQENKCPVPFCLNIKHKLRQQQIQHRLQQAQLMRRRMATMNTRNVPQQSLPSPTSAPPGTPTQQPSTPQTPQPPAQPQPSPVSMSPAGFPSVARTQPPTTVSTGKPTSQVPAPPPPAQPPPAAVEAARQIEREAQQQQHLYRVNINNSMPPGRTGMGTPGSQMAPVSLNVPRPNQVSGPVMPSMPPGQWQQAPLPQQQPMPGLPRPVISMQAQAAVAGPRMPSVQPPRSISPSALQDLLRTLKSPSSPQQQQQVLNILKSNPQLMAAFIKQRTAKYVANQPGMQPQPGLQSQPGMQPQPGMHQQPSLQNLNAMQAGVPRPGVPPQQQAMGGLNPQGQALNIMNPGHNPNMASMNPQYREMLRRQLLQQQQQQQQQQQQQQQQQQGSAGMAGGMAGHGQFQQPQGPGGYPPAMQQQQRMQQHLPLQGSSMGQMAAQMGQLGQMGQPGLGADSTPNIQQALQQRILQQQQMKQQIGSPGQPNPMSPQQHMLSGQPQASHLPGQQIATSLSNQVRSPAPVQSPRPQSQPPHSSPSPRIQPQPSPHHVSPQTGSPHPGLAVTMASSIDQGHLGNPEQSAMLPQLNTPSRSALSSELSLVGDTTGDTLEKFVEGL
Assay [2] has as its system MYC. As to the kind of experiment: MYC RPL19 QuantiGene assay in MV-4-11 cells. It is filed as cell-based. To be noted: Homo sapiens, MV4-11, compound 4 hours. The source says:
MYC RPL19 QuantiGene assay in MV-4-11 Cells

`CN1C(=O)Cc2ccc(N3CCCc4cc(-c5cnn(C)c5)c(C(F)F)cc43)cc21` [Example 90, 6-[7-(difluoromethyl)-6-(1-methylpyrazol-4-yl)-3,4-dihydro-2H-quinolin-1-yl]-1-methyl-indolin-2-one]: the IC50 in assay [1] came to 32 nM; in assay [2], 96 nM.
For the compound `CNC(=O)N1CCOc2ccc(N3CCCc4cc(-c5cnn(C)c5)c(C(F)F)cc43)cc2C1` [Example 113, 7-(7-(difluoromethyl)-6-(1-methyl-1H-pyrazol-4-yl)-3,4-dihydroquinolin-1(2H)-yl)-N-methyl-2,3-dihydrobenzo[f][1,4]oxazepine-4(5H)-carboxamide], the values for the IC50 in assay [1] and in assay [2] were 14 nM and 157 nM, respectively.
Consider `CC(=O)N1CCc2c(cc(N3CCCc4cc(-c5cnn(C)c5)c(C(F)F)cc43)c(=O)n2C)C1` [Example 17], for which the figures for the IC50 in assay [1] and in assay [2] were 47 nM and 2660 nM, respectively.
The corresponding values for `CNC(=O)c1c[nH]c2cnc(N3CCCc4cc(-c5cnn(C)c5)c(C(F)F)cc43)cc12` [Example 67] are 5 nM and 358 nM.
The corresponding values for `CCc1cc(N2CCCc3cc(-c4cnn(C)c4)c(C(F)F)cc32)cc2c1n(C)c(=O)n2C` [Example 37] are 11 nM and 281 nM.
For `CNC(=O)c1c[nH]c2ccc(N3CCCc4cc(-c5cnn(C)c5)c(C(F)F)cc43)cc12` [Example 52, 5-(7-(difluoromethyl)-6-(1-methyl-1H-pyrazol-4-yl)-3,4-dihydroquinolin-1(2H)-yl)-N-methyl-1H-indole-3-carboxamide] the same measures were 9 nM and 2180 nM.
As to `Cn1cc(-c2cc3c(cc2C(F)F)N(c2cc(Cl)c4c(c2)n(C)c(=O)n4C)CCC3)cn1` [Example 33, 4-chloro-6-(7-(difluoromethyl)-6-(1-methyl-1H-pyrazol-4-yl)-3,4-dihydroquinolin-1(2H)-yl)-1,3-dimethyl-1H-benzo[d]imidazol-2(3H)-one], the IC50 amounted to 42 nM in assay [1] and 1170 nM in assay [2].
Regarding `Cn1cc(-c2cc3c(cc2C(F)F)N(c2cc4c(cc2F)n(C)c(=O)n4C)CCC3)cn1` [Example 35], the IC50 worked out at 23 nM in assay [1] and 428 nM in assay [2].
With `CNC(=O)c1c[nH]c2c(C)cc(N3CCCc4cc(-c5cnn(C)c5)c(C(F)F)cc43)nc12` [Example 66], the IC50 in assay [1] turned out to be 4 nM; in assay [2], 46 nM.
In the case of `Cc1cc(N2CCCc3cc(-c4cnn(C)c4)c(C(F)F)cc32)cc2c1n(C)c(=O)n2C` [Example 36, 6-(7-(difluoromethyl)-6-(1-methyl-1H-pyrazol-4-yl)-3,4-dihydroquinolin-1(2H)-yl)-1,3,4-trimethyl-1H-benzo[d]imidazol-2(3H)-one], the IC50 in assay [1] was determined as 14 nM; in assay [2] it was 1380 nM.
On to `Cn1cc(-c2cc3c(cc2C(F)F)N(c2cc(C4CCC4)c4c(c2)n(C)c(=O)n4C)CCC3)cn1` [Example 39], for which the values for the IC50 in assay [1] and in assay [2] were 12 nM and 208 nM, respectively.
For `CC(=O)N1CCOc2ccc(N3CCCc4cc(-c5cnn(C)c5)c(C(F)F)cc43)cc2C1` [Example 112, 1-(7-(7-(difluoromethyl)-6-(1-methyl-1H-pyrazol-4-yl)-3,4-dihydroquinolin-1(2H)-yl)-2,3-dihydrobenzo[f][1,4]oxazepin-4(5H)-yl)ethanone] the same measures were 32 nM and 2100 nM.
In the case of `CNC(=O)c1c[nH]c2ccc(N3CCCc4cc(-c5cnn(C)c5)c(C(F)F)cc43)nc12` [Example 65], the IC50 in assay [1] came to 5 nM; in assay [2], 150 nM.
For `CNC(=O)c1cn(C)c2cc(C)c(N3CCCc4cc(-c5cnn(C)c5)c(C(F)F)cc43)cc12` [Example 57] the same measures were 9 nM and 302 nM.

Usually IC50 stands for the concentration that inhibits the measured activity by half.
